*1 amine or outer side, *2 acyl side, *3 side chain or, on linkers, in order; H or OH if unused. Where a SMILES comes first, the peptide text is derived from it. Bridges are numbered along the chain shown (N, C = ends). Where no end group is shown, it is not given here. [ ]: non-standard residue; d: D form. The star is where a group is joined. TBMB = c1c(C[*:1])cc(C[*:3])cc1C[*:2]; NHtetradecyl = CCCCCCCCCCCCCCN*
What was measured:
[1] = tested on: Sheep blood; assay: Hemolysis assay; assay type: cell-based; conditions: Supplemental table S7; sheep blood cells in PBS, 32 µg/ml, 1 h at 37°C, absorption at 414 nm
Procedure: Sheep blood in Alsever’s solution (2 mL) was diluted with PBS (13 mL) and centrifuged (2,000 RPM, 5 min). The supernatant was discarded and the cells were washed with another 13 mL of PBS and centrifuged. Washing was continued until the supernatant was clear. After the final wash the supernatant was discarded and the packed cells were kept on ice. Serial dilutions of each peptide were made in 50 µl PBS with the highest tested concentration 64 µg/mL in PBS, 2%
DMSO. The packed cells (150 µL) were suspended in PBS (10 mL) and 50 µL of this suspension was added to each well. A well plate column containing 0.1% triton x-100 in DI water was used as the 100% lysis control and a second column with PBS (with 2% DMSO) served as the 0% lysis control. After incubation at 37°C for 1h the plates were centrifuged (2,000 RPM, 5 min) and 25 µL of the supernatant was added to 100 µL DI water in a flat-bottom 96-wells plate (polystyrene). […]

[2] = tested on: M. luteus (NCTC2665); assay: microbe, parasite or virus in culture; assay type: cell-based, Micrococcus luteus
Procedure, shortened: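 Exponential-phase bacteria (OD600 0.5) were diluted to 1 x 10^6 CFU/ml and added in equal volume to twofold peptide dilutions in TSB. Highest final levels were 512 µg/ml for peptides and 64 µg/ml for lipidated peptides, each with 2% DMSO. Plates shook at 250 rpm at the organism's preferred temperature.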

[3] = tested on: E. faecium (VRE155); assay: microbe, parasite or virus in culture; assay type: cell-based, Enterococcus faecium
Procedure: (§1) Section 4 Biological and biochemical experiments
(§2) 4.1 Minimum inhibitory concentration assay
(§3) MIC values were determined by using the broth microdilution method. Peptides were dissolved first in DMSO and diluted with broth so that the final peptide concentration was 1024 µg/ml and the DMSO concentration was 4%. Peptide serial dilutions were made in TSB in a polypropylene 96-wells plate using 50 µl volumes. An overnight culture of the organism of interest was diluted to and OD600 of 0.01 and grown until they reach 0.5. The culture was then diluted to 1 x 10^6 CFU/ml and 50 µl of this suspension was added to each well. The highest concentrations were then 512 µg/ml peptide and 2% DMSO. The plates were incubated at the preferred growth temperature of the organism that was used and 250 rpm. […] When […]
(§4) determining the MICs of the lipidated peptides, the lipopeptides were first dissolved in DMSO and diluted with TSB so that the peptide concentration was 128 µg/ml and the DMSO concentration was 4%. After inoculation the highest peptide concentration evaluated was 64 µg/ml and the DMSO concentration was 2%. A DMSO control was tested for each strain to ensure the DMSO did not affect the growth of the particular strain. […]

[4] = footnote to Supplemental table S7; observation in words during MIC experiments
[5] = tested on: C15-P (farnesyl-phosphate); assay: Antagonization assay with C15-P (negative control); assay type: cell-based; design: key: +: antagonization of antibiotic activity; -: no antagonization of antibiotic activity; conditions: Supplemental table S10, peptide at 4x MIC, 4 molar equivalents, M. luteus, 16 h at 30°C, growth observed visually
Procedure: as §1, §2, §3, §4
(§5) 4.4 Antagonization assays
(§6) Stock solutions of each peptide antibiotic were prepared so that their final concentration in the assay would be 4x MIC. Peptides were transferred to a 96 wells plate and lipid II or C15-P (farnesyl-phosphate) was added at 4 molar equivalents in a final volume of 50 µl. Each well received 50 µl of bacterial suspension (M. luteus) at 1 x 10^6 CFU/ml and the plates were incubated for 16 h at 250 rpm and 30°C. Growth was observed visually (see supplemental table S10 for results).
Supplemental table S10. Lipid II antagonization assay results
Result with indicated antagonista
Antibiotic compound Lipid II C55-PP C15-Pb […]
a + = antagonization of antibiotic activity; - = no antagonization of antibiotic activity; b C -P was used as a negative […]
control (C15-P is a watersoluble analogue of the lipid II precursor undecaprenol phosphate).
4.6 Scanning Electron Microscopy
E. faecium E155 was inoculated at an OD600nm of 0.05 into 300 µL of cation adjusted TSB containing P8-D-(S6R, R15A)-C10 or nisin at (both a 2x MIC) along with 1% glucose and 1%
DMSO. An untreated culture was used as control. Following overnight incubation (ca. 16 hr) bacterial cells were fixed for 15 minutes with 1% (v/v) glutaraldehyde in phosphate buffered saline (PBS) at room temperature on poly-L-lysine covered glass slides (12 mm diameter). […]

[6] = tested on: S. pyogenes (5448); assay: microbe, parasite or virus in culture; assay type: cell-based
Procedure: as §1, §2, §3, §4

[7] = tested on: S. epidermidis (1587); assay: microbe, parasite or virus in culture; assay type: cell-based
Procedure: as §1, §2, §3, §4

[8] = tested on: B. subtilis (168); assay: microbe, parasite or virus in culture; assay type: cell-based
Procedure: as §1, §2, §3, §4

[9] = tested on: E. faecium (E980); assay: microbe, parasite or virus in culture; assay type: cell-based, Enterococcus faecium
Procedure: as §1, §2, §3, §4

[10] = tested on: E. faecium (VRE0321); assay: microbe, parasite or virus in culture; assay type: cell-based, Enterococcus faecium
Procedure: as §1, §2, §3, §4

[11] = tested on: E. faecium (VRE2297); assay: microbe, parasite or virus in culture; assay type: cell-based, Enterococcus faecium
Procedure: as §1, §2, §3, §4

[12] = tested on: E. faecium (VRE7391); assay: microbe, parasite or virus in culture; assay type: cell-based, Enterococcus faecium
Procedure: as §1, §2, §3, §4

[13] = read-out: Kd for undecaprenyl pyrophosphate (C55-PP); cited from earlier work
[14] = tested on: lipid II; assay: Lipid II antagonization assay; assay type: cell-based, M. luteus; design: key to Result with antagonist Lipid II: +: antagonization of antibiotic activity; -: no antagonization of antibiotic activity
Procedure: (§7) To assess the role of lipid II in the mode of action of the lipopeptides a lipid II antagonization assay was employed.[18],[33] This assay was performed by premixing P8-D-C10 or the optimized P8-D-(S6R, R15A)-C10 with an excess of lipid II prior to addition of a live culture of M. luteus. […] To probe the stereochemical aspects of lipid II recognition by the optimized P8-D-(S6R, R15A)-C10 lipopeptide we also prepared and tested the corresponding enantiomeric L-peptide species P8-L-(S6R, R15A)-C10. […] Given that lipid II is a chiral biomolecule we had expected the enantiomeric lipopeptides to have different activities based on the assumption that they would interact differently with lipid II. To further investigate this phenomenon we employed the same lipid II antagonization assay described above. […] To explain this observation we hypothesize that the two enantiomeric peptides interact primarily with the pyrophosphate moiety of lipid II and are therefore less influenced by the chiral elements present elsewhere in the lipid II molecule. The pyrophosphate group is known to be a binding site for many natural occurring lipid II binding peptides.[15],[16] […] To test the hypothesis that both the P8-D-(S6R, R15A)-C10 and P8-L-(S6R, R15A)-C10 lipopeptides interact with the pyrophosphate moiety we performed an additional antagonizaiton experiment using C55-PP.
as §1, §2, §3, §4, §5, §6

[15] = tested on: C55-PP; assay: Antagonization assay with C55-PP; assay type: cell-based, M. luteus; design: key to Result with antagonist C55-PP: +: antagonization of antibiotic activity; -: no antagonization of antibiotic activity; conditions: Supplemental table S10; peptide at 4x MIC, M. luteus, 16 h at 30°C, growth observed visually
Procedure: as §7, §1, §2, §3, §4, §5, §6

[16] = Supplemental table S7, P8 with varying lipids, broth microdilution
[17] = Supplemental table S9, MIC values of Table 2 expressed in µM
[18] = Table 2, broth microdilution in TSB, 16 h, read visually, highest tested 64 µg/ml
[19] = Supplemental table S9, vancomycin-resistant isolate, MIC values of Table 2 expressed in µM
[20] = Table 2, vancomycin-resistant isolate from hospitalized patients, broth microdilution in TSB, 16 h, highest tested 64 µg/ml

CCCCCCCCCCCCCCNC(=O)CNC(=O)[C@H]1CSCc2cc3cc(c2)CSC[C@@H](NC(=O)[C@@H](CC(C)C)NC(=O)[C@@H](CC(C)C)NC(=O)[C@@H](CO)NC(=O)[C@@H](CCC(N)=O)NC(=O)[C@@H](CC(C)C)NC(=O)[C@@H](CC(C)C)NC(=O)[C@H](NC(=O)[C@@H](C)N)CSC3)C(=O)N2CCC[C@@H]2C(=O)N[C@H](Cc2ccc(O)cc2)C(=O)N[C@H](CO)C(=O)N[C@H]([C@H](C)O)C(=O)N[C@H](Cc2c[nH]cn2)C(=O)N[C@H](CCCNC(=N)N)C(=O)N1 [Peptide P8-D-C14] (H-[dA][dC][dL][dL][dQ][dS][dL][dL][dC][dP][dY][dS][dT][dH][dR][dC]G-NHtetradecyl; linker 2-9-16 via TBMB; N-terminus assumed)
Hemolysis 32 µg/ml (after 1 h) [1]: 12% | MIC M. luteus [2, 16]: 4 to 64 µg/mL | MIC VRE E155 [3, 16]: 4 to 64 µg/mL | solubility of the peptide [4]: poor

Nisin (ITSISLCTPGCKTGALMGCNMKTATCHCSIHVSK; not fully specified (some residues, bridges); also: lantibiotic nisin-A: lanthionine rings and dehydro residues not placed; UniProt P13068 24-57, looked up) [reference compound]
Result with antagonist C15-P [5]: - | MIC M. luteus (NCTC2665) [2, 17]: < 0.3 µM | MIC M. luteus (NCTC2665) ([2]; Table 2, broth microdilution in TSB, 16 h, read visually, highest tested 64 µg/ml, 2% DMSO): <1 μg mL^–1 | MIC S. pyogenes (5448) [6, 17]: < 0.3 µM | MIC S. pyogenes (5448) [6, 18]: <1 μg mL^–1 | MIC S. epidermidis (1587) [7, 17]: 1.2 µM | MIC S. epidermidis (1587) [7, 18]: 4 μg mL^–1 | MIC B. subtilis (168) [8, 17]: 1.2 µM | MIC B. subtilis (168) [8, 18]: 4 μg mL^–1 | MIC E. faecium (E980) [9, 17]: 9.5 µM | MIC E. faecium (E980) [9, 18]: 32 μg mL^–1 | MIC E. faecium (VRE0321) [10, 19]: 0.3 µM | MIC E. faecium (VRE0321) [10, 20]: 1 μg mL^–1 | MIC E. faecium (VRE2297) [11, 19]: 2.4 µM | MIC E. faecium (VRE2297) [11, 20]: 8 μg mL^–1 | MIC E. faecium (VRE155) ([3]; Supplemental table S6, lipidated phage display hits, n.a. = not active, highest tested conc 64 µg/ml): < 1 µg/mL | MIC E. faecium (VRE155) [3, 19]: < 0.3 µM | MIC E. faecium (VRE155) [3, 20]: <1 μg mL^–1 | MIC E. faecium (VRE7391) [12, 19]: 0.6 µM | MIC E. faecium (VRE7391) [12, 20]: 2 μg mL^–1 | Kd [13]: 133 nM | Result with antagonist Lipid II ([14]; Supplemental table S10, peptide at 4x MIC, antagonist at 4 molar equivalents, M. luteus 1 x 10^6 CFU/ml, 16 h at 30°C, growth observed visually): + | Effect of pre-incubation with lipid II on antibacterial activity ([14]; premixed with an excess of lipid II before addition of a live culture of M. luteus): antagonization of antibacterial activity | Result with antagonist C55-PP [15]: +

— article PMC5853558, “De novo identification of lipid II binding lipopeptides with antibacterial activity against vancomycin-resistant bacteria” (Chemical Science, 2017)
